Article PMC11432795, “Mutagenesis of the Peptide Inhibitor of ASIC3 Channel Introduces Binding to Thumb Domain of ASIC1a but Reduces Analgesic Activity” (Marine Drugs, 2024)
Entries after “also recorded” stand apart in the source; their conditions may differ. Positions of bridges follow the written chain, without caps; N, C: chain ends. Residues, ends and D or L forms follow the SMILES beside them.

Test system: rat ASIC1a D355A mutant channel
Test: Two-electrode voltage clamp, D355A mutant ASIC1a in X. laevis oocytes
Type: cell-based
Settings: 10 µM; pH 5.5 stimulus, conditioning pH 7.4, peptide 30 s; n = 5
Method: Figure 5 The pivotal role of residue D355 in the ASIC1a channel for the action of the A23K peptide ligand. (A,B) pH dependence of steady-state desensitization (A) and activation (B) in mutant channels (D355A and E357A) compared to the wild-type channel (wt). Each data point represents results from 5 cells. (C–E) Representative current traces illustrating the effects of A23K at a concentration of 10 µM on wt (C), D355A (D), and E357A (E) channels. Currents were evoked by a pH 5.5 stimulus following a conditioning pH of 7.4, with the peptide applied for 30 s preceding the pH stimulus. (F) Bar graph quantifying the effects depicted in (C,D) as a percentage of the corresponding control currents (n = 5). A value of 1.0, represented by a dotted line, corresponds to control measurements at pH 5.5 for each form of ASIC1a. The data are expressed as mean ± SEM; *** p < 0.001, **** p < 0.0001, ns non-significant vs. control, unpaired t-test.
To introduce D355A and E357A substitutions, we designed two pairs of primers. For D355A substitution, the forward primer sequence was 5′–[…]–3′, and the reverse primer (R2) for D355A was 5′–CTAGGAAGTCCAGGGCAG–3′. For E357A substitution, the forward primer sequence was 5′–[…]–3′, and the reverse primer for E357A was the same as for D355A (designated as “R2”). […]

CC[C@H](C)[C@H](N)C(=O)N[C@@H](CO)C(=O)N[C@H](C(=O)N[C@@H](CC(=O)O)C(=O)N1CCC[C@H]1C(=O)N1CCC[C@H]1C(=O)N[C@H]1CSSC[C@@H]2NC(=O)[C@H](CC(N)=O)NC(=O)CNC(=O)[C@H](CO)NC(=O)CNC(=O)[C@H](CC(=O)O)NC(=O)[C@H](CCCNC(=N)N)NC(=O)[C@H](Cc3c[nH]cn3)NC(=O)[C@H](Cc3ccc(O)cc3)NC(=O)[C@H](CSSC[C@@H](C(=O)NCC(=O)N[C@@H](C)C(=O)N[C@H](C(=O)O)C(C)C)NC(=O)CNC(=O)[C@H](Cc3ccc(O)cc3)NC(=O)[C@H](CCCCN)NC(=O)[C@H](CC(=O)O)NC(=O)[C@H](Cc3ccc(O)cc3)NC(=O)[C@H](C(C)C)NC2=O)NC(=O)[C@H](Cc2ccccc2)NC(=O)[C@H](CCCNC(=N)N)NC1=O)[C@@H](C)CC [A23K] (H-ISIDPPCRFCYHRDGSGNCVYDKYGCGAV-OH; disulfide 7-19, 10-26)
inhibitory effect on D355A mutant channel: no significant effect; also recorded: entirely abolished
